We go through six compounds from patent US11304939B2, “Methods for treating oral cancers” (Chang Gung University, priority 2020, dated 2022).

Assay [1] deals with SAS cells. Put plainly: MTT cell viability assay, SAS cells. The assay is classed as cell-based. The conditions noted are these: 48 hours; for cell viability / proliferation (MTT): vs vehicle control. As to the method:
(§1) For cell viability assay, approximately 5×10^4 cells were seeded into each well of a 96-well plate, and treated with vehicle control or inhibitors at the indicated concentrations for 48 hours in complete medium, followed by MTT viability assay. The absorbance was read at 540 nm in a multiwell spectrophotometer (SpectraMax M2; Molecular Devices, USA). All samples were run in triplicate. For apoptosis assay, cells were plated in 6-well dishes, and treated with vehicle control or various inhibitors at the indicated concentrations for 48 hours. Cells were then harvested, washed with PBS, and stained with 2 μl an FITC-conjugated Annexin V antibody (Invitrogen, USA) and 50 μg/ml propidium iodide (Sigma-Aldrich, USA), followed by flow cytometry analysis (Attune NxT; Invitrogen, USA) and data analysis by FlowJo software (Tree Star, Inc.).
On the technique in general: Formazan colour is commonly taken as a measure of viable cells.

Assay [2] relates to OEC-M1 cells. Put plainly: MTT cell viability assay, OEC-M1 cells. It is filed as cell-based. The following applies: 48 hours; for cell viability / proliferation (MTT): vs vehicle control. The method, then: as §1
In assay [3] the test system is SAS, OC3, and OEC-M1 cells. Put plainly: MTT cell viability assay, one range over three OSCC cell lines. The following applies: OECM1. It is filed as cell-based. The method, then: as §1
In assay [4] the test system is SAS cells. Put plainly: colony-forming assay, SAS cells. It is filed as cell-based.
Assay [5] deals with OEC-M1 cells. Put plainly: colony-forming assay, OEC-M1 cells. It is filed as cell-based.
Assay [6] deals with OSCC cells. Put plainly: apoptosis assay (Annexin V staining), OSCC cells. It is filed as cell-based. The conditions noted are these: increasing concentration. As to the method:
as §1

The subject of assay [7] is AKT. Briefly: immunoblotting of phosphorylation of AKT. The following applies: after UV exposure. It is filed as cell-based. As to the method:
After treatments, whole-cell lysates from each sample were prepared by lysed with RIPA lysis buffer (1% NP_40, 20 mM Tris-HCl (pH 7.5), 150 mM NaCl, 1 mM Na3VO4, 5 mM EDTA (pH 8.0), 10% glycerol, PMSF, and 0.2% protease inhibitor) for 15-30 minutes on ice, and centrifuged at 15,000×g for 20 min at 4° C. Equal amounts of protein from each sample were fractionated by SDS-PAGE, and transferred to a PVDF membrane, which was incubated with the appropriate primary antibody. Proteins were detected with HRP-conjugated secondary antibodies and ECL substrate (PerkinElmer, USA).
In the present study, the efficacy of the PI3K inhibitors (e.g., BYL719, GDC-0941, and GSK1059615) toward eliminating OSCC cell lines (including SAS, OEC-M1, and OC3) was examined. First of all, cell proliferation assays after the PI3K inhibitors (i.e., BYL719, GDC-0941, and GSK1059615) treatments were performed, and the results were provided in FIG. 3A. […] The IC50 for BYL719 in the SAS, OC3, and OECM1 cell lines ranged from 8 to 20 μM (FIG. 3A). Another indication for measuring anti-cancer activity was by investigating the colony-forming ability of SAS and OEC-M1 cells treated with BYL719. […] The effects for PI3K inhibitors on the PI3K/AKT/mTOR signaling pathway were studied as well.

For assay [8], the system named is SAS cells xenograft. Put plainly: SAS cell line-derived xenograft (OSCC CDX) tumor growth. It is filed as in vivo, NOD/SCID mice. As to the method:
NOD/SCID mice and NOD.Cg-Prkdcscid Il2rgtm1Wjl/SzJ (NSG) mice were housed in an animal facility at Chang Gung University. For SAS cell line-derived xenograft (CDX) animal model, SAS cells were prepared in serum-free DMEM (5×10^6 cells per ml). SAS cell suspensions (100 μl) were injected subcutaneously into NOD/SCID mice (6-8 weeks), and tumors were established after 3-4 weeks. Once xenografts reached 300-500 mm^3, mice were randomly divided into the treatment groups or control groups. PF477736 was used at the dose of 10 or 20 mg/kg, and administered intraperitoneally 4 days/week. BYL719 was used at the dose of 25 or 50 mg/kg, and administered orally 5 days/week. Cisplatin was used at the dose of 5 mg/kg, and administered intraperitoneally 2 days/week. During the course of treatment (two to three weeks), the tumor size was monitored twice weekly, and the tumor volumes were calculated.

The test system of assay [9] is patient #1 PDX. Put plainly: OSCC PDX model, patient #1, tumor growth. The assay is classed as in vivo, NSG mice. The conditions noted are these: PF477736 20 mg/kg; for growth of PDX tumors vs control: Cisplatin 5 mg/kg, combined vs control p=0.0024. As to the method:
(§2) For OSCC PDX animal model, three patients of newly diagnosed were recruited, and written consents were obtained in accordance with the protocols approved by the Institutional Review Board of Chang Gung Memorial Hospital. Patient tumor explants were prepared from surgical specimens, and engrafted into NSG mice within 2 hours. Briefly, fresh tumor tissues were rinsed in PBS containing an antibiotic-antimycotic solution (Gibco, USA), and chopped into small pieces (˜1 mm^3). Each NSG mouse was subcutaneously grafted with 50-100 mg tumors in the left flank. When tumors reached 400-500 mm^3 in size, animals were randomly assigned into control and different treatment groups. Treatments for each single drug were the same as those used in the SAS CDX model as described above. For combined treatments, for the combination therapy of Cisplatin and PF477736, Cisplatin was used at the dose of 5 mg/kg, and administered intraperitoneally 2 days/week for one week; whilst PF477736 was used at the dose of 20 mg/kg, and administered intraperitoneally 4 days/week for one week; and for the combination therapy of PF477736 and BYL719, PF477736 was used at the dose of 20 mg/kg, and administered intraperitoneally 4 days/week for one week; whilst BYL719 was used at the dose of 50 mg/kg, and administered orally 5 days/week for two weeks. Tumors were measured with calipers, and the volume was calculated as ½×length×width^2. Three PDX models in total were evaluated for response to single treatments or combined treatments. All animal experiments were approved by the Institutional Animal Care and Use Committee of Chang Gung University.

Assay [10] relates to patient #2 PDX. Put plainly: OSCC PDX model, patient #2, tumor growth. The following applies: PF477736 20 mg/kg; for growth of PDX tumors vs control: Cisplatin 5 mg/kg, combined vs control p=0.006. It is filed as in vivo, NSG mice. The method, then:
as §2

In assay [11] the test system is patient #3 PDX. Put plainly: OSCC PDX model, patient #3, tumor growth. The conditions noted are these: Cisplatin 5 mg/kg, PF477736 20 mg/kg, combined vs control p=0.03. The assay is classed as in vivo, NSG mice. As to the method:
For OSCC PDX animal model, three patients of newly diagnosed were recruited, and written consents were obtained in accordance with the protocols approved by the Institutional Review Board of Chang Gung Memorial Hospital. Patient tumor explants were prepared from surgical specimens, and engrafted into NSG mice within 2 hours. Briefly, fresh tumor tissues were rinsed in PBS containing an antibiotic-antimycotic solution (Gibco, USA), and chopped into small pieces (˜1 mm^3). Each NSG mouse was subcutaneously grafted with 50-100 mg tumors in the left flank. When tumors reached 400-500 mm^3 in size, animals were randomly assigned into control and different treatment groups. Treatments for each single drug were the same as those used in the SAS CDX model as described above. […] Tumors were measured with calipers, and the volume was calculated as ½×length×width^2. Three PDX models in total were evaluated for response to single treatments or combined treatments. […]

The subject of assay [12] is SAS cells. Briefly: apoptosis assay (Annexin V and PI staining), SAS cells. The assay is classed as cell-based. The following applies: 48 hours. As to the method:
as §1

Assay [13] deals with OC3 cells. Briefly: apoptosis assay (Annexin V and PI staining), OC3 cells. The assay is classed as cell-based. The following applies: 48 hours. The method, then:
as §1

Assay [14] relates to OEC-M1 cells. Briefly: apoptosis assay (Annexin V and PI staining), OEC-M1 cells. It is filed as cell-based. The following applies: 48 hours. As to the method:
as §1

The target in assay [15] is T1, CHK1 (Homo sapiens, UniProt O14757).
T1 sequence (O14757 1-476): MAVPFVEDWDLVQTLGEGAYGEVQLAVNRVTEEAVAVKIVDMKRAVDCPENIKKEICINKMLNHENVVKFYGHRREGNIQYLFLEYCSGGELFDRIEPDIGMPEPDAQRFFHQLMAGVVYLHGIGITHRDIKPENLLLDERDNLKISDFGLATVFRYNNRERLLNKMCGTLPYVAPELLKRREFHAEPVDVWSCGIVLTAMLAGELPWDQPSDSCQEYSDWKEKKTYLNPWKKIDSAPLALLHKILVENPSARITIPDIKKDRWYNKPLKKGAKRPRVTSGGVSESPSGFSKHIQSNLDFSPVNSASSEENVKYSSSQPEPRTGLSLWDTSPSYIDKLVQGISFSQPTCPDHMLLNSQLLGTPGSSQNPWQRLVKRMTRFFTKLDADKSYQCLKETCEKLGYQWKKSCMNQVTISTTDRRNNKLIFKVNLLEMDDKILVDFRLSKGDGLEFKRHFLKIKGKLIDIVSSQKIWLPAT
Briefly: immunoblotting of UV-induced phosphorylation of CHK1 at Ser296 in SAS cells. The following applies: SAS cells after UV exposure. A general note: A western blot detects proteins with antibodies after separation by electrophoresis.
Procedure: After treatments, whole-cell lysates from each sample were prepared by lysed with RIPA lysis buffer (1% NP—40, 20 mM Tris-HCl (pH 7.5), 150 mM NaCl, 1 mM Na3VO4, 5 mM EDTA (pH 8.0), 10% glycerol, PMSF, and 0.2% protease inhibitor) for 15-30 minutes on ice, and centrifuged at 15,000×g for 20 min at 4° C. Equal amounts of protein from each sample were fractionated by SDS-PAGE, and transferred to a PVDF membrane, which was incubated with the appropriate primary antibody. Proteins were detected with HRP-conjugated secondary antibodies and ECL substrate (PerkinElmer, USA).
On the molecular level, the biochemical effects of the three CHK1 inhibitors in SAS cells were characterized. DNA damage was first induced by UV exposure, and the CHK1 inhibitors were then applied to the injured cells.

Take `Cc1nc(NC(=O)N2CCC[C@H]2C(N)=O)sc1-c1ccnc(C(C)(C)C(F)(F)F)c1` [BYL719, Alpelisib]: the “cell viability / proliferation (MTT)” value in assay [1] and in assay [2] was “clear reduction in proliferation” in each case. The compound further showed an IC50 in assay [3] of 8 to 20 µM. For the same compound, the colony-forming ability entry in assay [4] and in [5] was “compromised in a dose-dependent manner” each time. Further, the “cell apoptosis (Annexin V staining)” value in [6] is “gradually elevation in apoptosis”. Further, in assay [7], the “phosphorylation of AKT” value was “specifically inhibited phosphorylation of AKT”. In addition, the “tumor growth vs control” value in assay [8] (50 mg/kg orally 5 days/week, p=0.011) is recorded as “significantly suppressed tumor growth”; in [9] (BYL719 50 mg/kg, monotherapy p=0.66, combined p=0.844), “could not inhibit tumor growth”; in assay [10] (BYL719 50 mg/kg, monotherapy p=0.16, combined p=0.036), “slightly inhibited tumor growth”.

For `N.N.[Cl][Pt][Cl]` [Cisplatin], the “tumor growth vs control” value in assay [8] (5 mg/kg intraperitoneally 2 days/week, p=0.03) is given as “exhibited an ability to inhibit tumor growth”. Further, the “growth of PDX tumors vs control” value in assay [9], in [10] and in assay [11] was “partially but not significantly inhibit the growth” each time.

In the case of `CS(=O)(=O)N1CCN(Cc2cc3nc(-c4cccc5[nH]ncc45)nc(N4CCOCC4)c3s2)CC1` [GDC-0941, Pictilisib], the “cell viability / proliferation (MTT)” value in [1] and in assay [2] was “clear reduction in proliferation” throughout. Further, in assay [7], the “phosphorylation of AKT” value is reported as “specifically inhibited phosphorylation of AKT”.

As to `O=C1NC(=O)/C(=C/c2ccc3nccc(-c4ccncc4)c3c2)S1` [GSK1059615, (Z)-5-((4-(pyridin-4-yl)quinolin-6-yl)methylene)thiazolidine-2,4-dione], the “cell viability / proliferation (MTT)” value in assay [1] and in [2] was “clear reduction in proliferation” in each case. Besides, the “phosphorylation of AKT” value in assay [7] is recorded as “specifically inhibited phosphorylation of AKT”.

Consider `COc1cccc(OCCCN)c1-c1cc(Nc2cnc(C#N)cn2)n[nH]1` [LY2606368, Prexasertib], for which the “cell viability / proliferation (MTT)” value in assay [1] and in assay [2] was “dose-dependent inhibition” each time.

With `Cn1cc(-c2[nH]c3cc(NC(=O)[C@H](N)C4CCCCC4)cc4c3c2C=NNC4=O)cn1` [PF477736, (R)-2-amino-2-cyclohexyl-N-(2-(1-methyl-1H-pyrazol-4-yl)-6-oxo-5,6-dihydro-1H-[1,2]diazepino[4,5,6-cd]indol-8-yl)acetamide], the “cell viability / proliferation (MTT)” value in assay [1] and in assay [2] was “dose-dependent inhibition” throughout. The IC50 was 0.12 to 0.4 µM in assay [1] (MTT, read-out: half-maximal inhibitory concentration (IC50)) and 10 µM in assay [2] (OECM1, MTT, read-out: half-maximal inhibitory concentration (IC50)). Further, the colony-forming ability result in assay [4] and in assay [5] was “significantly impaired the colony-forming ability” throughout. For the same compound, the “cell apoptosis (Annexin V and PI staining)” value in assay [12], in assay [13] and in assay [14] was “significantly exacerbated cell apoptosis” throughout. Further, the “tumor growth vs control” value is on record as “could barely suppress tumor growth” in assay [8] (10 mg/kg intraperitoneally 4 days/week, p=0.083) and “could barely suppress tumor growth” in [8] (20 mg/kg intraperitoneally 4 days/week, p=0.081). The “growth of PDX tumors vs control” value in assay [9], in assay [10] and in assay [11] was “partially but not significantly inhibit the growth” throughout. Also, the “phosphorylation of CHK1 at Ser296” value in [15] is listed as “specifically reduce phosphorylation of CHK1”.
